Experimental data: patent US20260022143A1, “Cyclic Peptide Inhibitors of IL-23” (JANSSEN PHARMACEUTICA NV, priority 2022, published 2026)
Like-named read-outs stand apart in the source and are kept apart here. Starred links: 1 amine or outer side, 2 acyl side, 3 side chain; linkers in the order of their positions; H or OH if unused. Positions of bridges follow the written chain, without caps; N, C: chain ends. Non-standard residues stand in square brackets, D forms with d. Residues, ends and D or L forms follow the SMILES beside them. Groups on a side chain read outwards from the residue. ξ: configuration not given here. *: point of attachment. X78 = N=C(N)NCCc1cn(-c2ccc(C[C@H](N[*:1])C(=O)[*:2])cc2)nn1; Me3N+(CH2)2O(CH2)2O(CH2)2CO = C[N+](C)(C)CCOCCOCCC(=O)*; CH2CH2OCH2CH2OCH2CH2NMe3+ = C[N+](C)(C)CCOCCOCC*; Trp(7-Me) = Cc1cccc2c(C[C@H](N)C(=O)O)c[nH]c12; PEG9 = NCCOCCOCCOCCOCCOCCOCCOCCOCCOCCC(=O)O; Pentanoyl(5-guanidino) = NC(N)=NCCCCC(=O)*; X71 = C[N+](C)(C)CC(F)(F)C(F)(F)C(F)(F)C*; γGlu = O=C(O)[C@H](CCC(=O)[*:2])N[*:1]; 2Nal = N[C@@H](Cc1ccc2ccccc2c1)C(=O)O; AEF = NCCOc1ccc(C[C@H](N)C(=O)O)cc1; 3Pal = N[C@@H](Cc1cccnc1)C(=O)O; Lys(Me) = CNCCCC[C@H](N)C(=O)O; NMeK = CN[C@@H](CCCCN)C(=O)O; Pen = CC(C)(S)[C@H](N)C(=O)O; Lauroyl = CCCCCCCCCCCC(=O)*; ξLys(Me) = CNCCCCC(N)C(=O)O; Nle = CCCC[C@H](N)C(=O)O; Thp = NC1(C(=O)O)CCOCC1; X3 = C[N+](C)(C)CCCCC*; AEEA = NCCOCCOCC(=O)O; Sar = CNCC(=O)O

Target: T1, IL-23R (Homo sapiens, UniProt Q5VWK5)
T1 construct: host or cells: HEK293
T1 sequence (Q5VWK5 24-629): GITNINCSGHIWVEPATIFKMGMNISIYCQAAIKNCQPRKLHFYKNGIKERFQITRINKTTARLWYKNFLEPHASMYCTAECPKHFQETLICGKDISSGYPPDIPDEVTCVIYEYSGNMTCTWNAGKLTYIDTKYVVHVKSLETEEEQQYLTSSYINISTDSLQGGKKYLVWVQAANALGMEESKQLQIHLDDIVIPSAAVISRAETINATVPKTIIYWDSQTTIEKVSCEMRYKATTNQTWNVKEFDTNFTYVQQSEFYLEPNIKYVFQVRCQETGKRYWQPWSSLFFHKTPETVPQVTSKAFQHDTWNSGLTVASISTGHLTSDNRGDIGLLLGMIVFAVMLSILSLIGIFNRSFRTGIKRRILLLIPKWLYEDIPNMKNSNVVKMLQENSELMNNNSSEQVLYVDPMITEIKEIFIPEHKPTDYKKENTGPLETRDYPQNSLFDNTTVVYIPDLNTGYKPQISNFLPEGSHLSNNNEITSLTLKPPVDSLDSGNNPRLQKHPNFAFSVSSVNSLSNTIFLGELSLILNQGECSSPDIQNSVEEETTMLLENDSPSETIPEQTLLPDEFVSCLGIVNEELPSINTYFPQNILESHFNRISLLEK
Test: IL23R Reporter Assay
Type: cell-based
Conditions: HEK293 cells containing IL-23R, IL-12RP1 and STAT-inducible firefly luciferase reporter, 10 ng/mL IL-23 (EC90), 5 h at 37° C.

SMILES | IC50 (read-out: IL23R Reporter Assay) | IC50 (IL23R Reporter Assay (micromolar))
CC(=O)N(C)CCCCC(NC(=O)C1(NC(=O)[C@H](Cc2ccc3ccccc3c2)NC(=O)[C@H](Cc2ccc(OCCOCCOCC[N+](C)(C)C)cc2)NC(=O)[C@H]2NC(=O)[C@H](CCCCN(C)C(C)=O)NC(=O)[C@H](Cc3c[nH]c4c(C)cccc34)NC(=O)[C@H]([C@@H](C)O)NC(=O)[C@H](CC(=O)N(C)C)NC(=O)[C@@H](NC(=O)CCOCCOCC[N+](C)(C)C)C(C)(C)SSC2(C)C)CCOCC1)C(=O)N[C@@H](CC(N)=O)C(=O)N[C@@H](C)C(=O)N(C)CC(=O)N(C)C (stereo partly shown) [compound 574, cPEG3aCO-Pen(3)-N(N(Me)2)-T-7MeW-K(NMeAc)-Pen(3)-APEG3F-2Nal-THP-K(NMeAc)-N-A-Sar-CON(Me)2] ({Me3N+(CH2)2O(CH2)2O(CH2)2CO}-[Pen]D(NMe2)T[Trp(7-Me)][Lys(Me)](Ac)[Pen]Y(CH2CH2OCH2CH2OCH2CH2NMe3+)[2Nal][Thp][ξLys(Me)](Ac)NA[Sar]-NMe2; disulfide 1-6) | 1390 nM | –
CC(=O)N(C)CCCC[C@@H]1NC(=O)[C@H](Cc2c[nH]c3c(C)cccc23)NC(=O)[C@H]([C@@H](C)O)NC(=O)[C@H](CC(=O)N(C)C)NC(=O)[C@@H](NC(=O)CCCCNC(=N)N)C(C)(C)SSC(C)(C)[C@@H](C(=O)N[C@@H](Cc2ccc(OCCCCC[N+](C)(C)C)cc2)C(=O)N[C@@H](Cc2ccc3ccccc3c2)C(=O)NC2(C(=O)N[C@@H](CCCCN(C)C(C)=O)C(=O)N[C@@H](CC(N)=O)C(=O)N[C@@H](Cc3cccnc3)C(=O)N(C)CC(=O)N(C)C)CCOCC2)NC1=O [compound 403, 4cpgCO-Pen(3)-N(N(Me)2)-T-7MeW-K(NMeAc)-Pen(3)-TMAPF-2Nal-THP-K(NMeAc)-N-3Pya-Sar-CON(Me)2] ({Pentanoyl(5-guanidino)}-[Pen]D(NMe2)T[Trp(7-Me)][Lys(Me)](Ac)[Pen]Y(X3)[2Nal][Thp][Lys(Me)](Ac)N[3Pal][Sar]-NMe2; disulfide 1-6) | 4.5 nM | –
CC(=O)N(C)CCCC[C@@H]1NC(=O)[C@H](Cc2c[nH]c3c(C)cccc23)NC(=O)[C@H]([C@@H](C)O)NC(=O)[C@H](CC(=O)N(C)C)NC(=O)[C@@H](NC(=O)CCOCCOCC[N+](C)(C)C)C(C)(C)SSC(C)(C)[C@@H](C(=O)N[C@@H](Cn2cc(CC[N+](C)(C)C)nn2)C(=O)N[C@@H](Cc2ccc3ccccc3c2)C(=O)NC2(C(=O)N[C@@H](CCCCN(C)C(C)=O)C(=O)N[C@@H](CC(N)=O)C(=O)N[C@@H](Cc3cccnc3)C(=O)N(C)CC(=O)N(C)C)CCOCC2)NC1=O [compound 287, cPEG3aCO-Pen(3)-N(N(Me)2)-T-7MeW-K(NMeAc)-Pen(3)-Tzl(Ch)-2Nal-THP-K(NMeAc)-N-3Pya-Sar-CON(Me)2] | 24 nM | –
CC(=O)NCCCC[C@@H]1NC(=O)[C@H](Cc2c[nH]c3c(C)cccc23)NC(=O)[C@H]([C@@H](C)O)NC(=O)[C@H](CC(N)=O)NC(=O)[C@@H](NC(=O)CCOCCOCC[N+](C)(C)C)C(C)(C)SSC(C)(C)[C@@H](C(=O)N[C@@H](Cc2ccc(OC(F)F)cc2)C(=O)N[C@@H](Cc2ccc3ccccc3c2)C(=O)NC2(C(=O)N[C@@H](CCCCNC(C)=O)C(=O)N[C@@H](CC(N)=O)C(=O)N[C@@H](Cc3cccnc3)C(=O)N(C)CC(N)=O)CCOCC2)NC1=O [compound 551, cPEG3aCO-Pen(3)-N-T-7MeW-K(Ac)-Pen(3)-YCF2H-2Nal-THP-K(Ac-N-3Pya-Sar-CONH2] | 5.5 nM | –
CCCCCCCCCCCC(=O)N[C@@H](CCC(=O)NCCOCCOCC(=O)NCCOCCOCC(=O)NCCOCCOCC(=O)NCCCC[C@H](NC(=O)C1(NC(=O)[C@H](Cc2ccc3ccccc3c2)NC(=O)[C@H](Cc2ccc(OCCCCC[N+](C)(C)C)cc2)NC(=O)[C@H]2NC(=O)[C@H](CCCCNC(C)=O)NC(=O)[C@H](Cc3c[nH]c4c(C)cccc34)NC(=O)[C@H]([C@@H](C)O)NC(=O)[C@H](CC(=O)N(C)C)NC(=O)[C@@H](NC(=O)CCOCCOCC[N+](C)(C)C)C(C)(C)SSC2(C)C)CCOCC1)C(=O)N[C@@H](CC(N)=O)C(=O)N[C@@H](Cc1cccnc1)C(=O)N(C)[C@@H](CCCCNC(=O)COCCOCCNC(=O)COCCOCCNC(=O)COCCOCCNC(=O)CC[C@H](NC(=O)CCCCCCCCCCC)C(=O)O)C(N)=O)C(=O)O [compound 373, cPEG3aCO-Pen(3)-N(N(Me)2)-T-7MeW-K(Ac)-Pen(3)-TMAPF-2Nal-THP-K(PEG2PEG2PEG2gEC12))-N-3Pya-NMeK(PEG2PEG2PEG2gEC12)-CONH2] ({Me3N+(CH2)2O(CH2)2O(CH2)2CO}-[Pen]D(NMe2)T[Trp(7-Me)]K(Ac)[Pen]Y(X3)[2Nal][Thp]K([AEEA-AEEA-AEEA-γGlu-Lauroyl])N[3Pal][NMeK]([AEEA-AEEA-AEEA-γGlu-Lauroyl])-NH2; disulfide 1-6) | 87 nM | –
CC(=O)N(C)CCCC[C@@H]1NC(=O)[C@H](Cc2c[nH]c3c(C)cccc23)NC(=O)[C@H]([C@@H](C)O)NC(=O)[C@H](CC(=O)N(C)C)NC(=O)[C@@H](NC(=O)CCOCCOCC[N+](C)(C)C)C(C)(C)SSC(C)(C)[C@@H](C(=O)N[C@@H](Cc2ccc(OCC(F)(F)C(F)(F)C(F)(F)C[N+](C)(C)C)cc2)C(=O)N[C@@H](Cc2ccc3ccccc3c2)C(=O)NC2(C(=O)N[C@@H](CCCCN(C)C(C)=O)C(=O)N[C@@H](CC(N)=O)C(=O)N[C@@H](Cc3cccnc3)C(=O)N(C)CC(=O)N(C)C)CCOCC2)NC1=O [compound 338, cPEG3aCO-Pen(3)-N(N(Me)2)-T-7MeW-K(NMeAc)-Pen(3)-hFTMAPF-2Nal-THP-K(NMeAc)-N-3Pya-Sar-CON(Me)2] ({Me3N+(CH2)2O(CH2)2O(CH2)2CO}-[Pen]D(NMe2)T[Trp(7-Me)][Lys(Me)](Ac)[Pen]Y(X71)[2Nal][Thp][Lys(Me)](Ac)N[3Pal][Sar]-NMe2; disulfide 1-6) | – | 1.6 nM
CCCC[C@H](NC(=O)C1(NC(=O)[C@H](Cc2ccc3ccccc3c2)NC(=O)[C@H](Cc2ccc(OCCOCCOCC[N+](C)(C)C)cc2)NC(=O)[C@H]2NC(=O)[C@H](CCCCN(C)C(C)=O)NC(=O)[C@H](Cc3c[nH]c4c(C)cccc34)NC(=O)[C@H]([C@@H](C)O)NC(=O)[C@H](CC(=O)N(C)C)NC(=O)[C@@H](NC(=O)CCOCCOCC[N+](C)(C)C)C(C)(C)SSC2(C)C)CCOCC1)C(=O)N[C@@H](CC(N)=O)C(=O)N[C@@H](Cc1cccnc1)C(=O)N(C)CC(=O)N(C)C [compound 520, cPEG3aCO-Pen(3)-N(N(Me)2)-T-7MeW-K(NMeAc)-Pen(3)-APEG3F-2Nal-THP-Nle-N-3Pya-Sar-CON(Me)2] ({Me3N+(CH2)2O(CH2)2O(CH2)2CO}-[Pen]D(NMe2)T[Trp(7-Me)][Lys(Me)](Ac)[Pen]Y(CH2CH2OCH2CH2OCH2CH2NMe3+)[2Nal][Thp][Nle]N[3Pal][Sar]-NMe2; disulfide 1-6) | 1.4 nM | –
CC(=O)NCCCC[C@@H]1NC(=O)[C@H](Cc2c[nH]c3c(C)cccc23)NC(=O)[C@H]([C@@H](C)O)NC(=O)[C@H](CC(N)=O)NC(=O)[C@@H](NC(=O)CCOCCOCC[N+](C)(C)C)C(C)(C)SSC(C)(C)[C@@H](C(=O)N[C@@H](Cc2ccc(-n3cc(CCNC(=N)N)nn3)cc2)C(=O)N[C@@H](Cc2ccc3ccccc3c2)C(=O)NC2(C(=O)N[C@@H](CCCCNC(C)=O)C(=O)N[C@@H](CC(N)=O)C(=O)N[C@@H](Cc3cccnc3)C(=O)N(C)CC(N)=O)CCOCC2)NC1=O [compound 521, cPEG3aCO-Pen(3)-N-T-7MeW-K(Ac)-Pen(3)-F(4TzlG2)-2Nal-THP-K(Ac)-N-3Pya-Sar-CONH2] ({Me3N+(CH2)2O(CH2)2O(CH2)2CO}-[Pen]NT[Trp(7-Me)]K(Ac)[Pen][X78][2Nal][Thp]K(Ac)N[3Pal][Sar]-NH2; disulfide 1-6) | 1.4 nM | –
CC(=O)NCCCC[C@@H]1NC(=O)[C@H](Cc2c[nH]c3c(C)cccc23)NC(=O)[C@H]([C@@H](C)O)NC(=O)[C@H](CC(N)=O)NC(=O)[C@@H](NC(=O)[C@@H](CCCCNC(=O)CCOCCOCCOCCOCCOCCOCCOCCOCCOCCNC(C)=O)NC(C)=O)C(C)(C)SSC(C)(C)[C@@H](C(=O)N[C@@H](Cc2ccc(OCCN)cc2)C(=O)N[C@@H](Cc2ccc3ccccc3c2)C(=O)NC2(C(=O)N[C@@H](CCCCNC(C)=O)C(=O)N[C@@H](CC(N)=O)C(=O)N[C@@H](Cc3cccnc3)C(=O)N(C)CC(N)=O)CCOCC2)NC1=O [compound 44] (Ac-[dK]([PEG9-Ac])[Pen]NT[Trp(7-Me)]K(Ac)[Pen][AEF][2Nal][Thp]K(Ac)N[3Pal][Sar]-NH2; disulfide 2-7 (inferred)) | 6.8 nM | –
CCCCCCCCCCCC(=O)N[C@@H](CCC(=O)NCCOCCOCC(=O)NCCOCCOCC(=O)NCCCC[C@H](NC(=O)C1(NC(=O)[C@H](Cc2ccc3ccccc3c2)NC(=O)[C@H](Cc2ccc(OCCCCC[N+](C)(C)C)cc2)NC(=O)[C@H]2NC(=O)[C@H](CCCCNC(C)=O)NC(=O)[C@H](Cc3c[nH]c4c(C)cccc34)NC(=O)[C@H]([C@@H](C)O)NC(=O)[C@H](CC(=O)N(C)C)NC(=O)[C@@H](NC(=O)CCOCCOCC[N+](C)(C)C)C(C)(C)SSC2(C)C)CCOCC1)C(=O)N[C@@H](CC(N)=O)C(=O)N[C@@H](Cc1cccnc1)C(=O)N(C)[C@@H](CCCCNC(=O)COCCOCCNC(=O)COCCOCCNC(=O)CC[C@H](NC(=O)CCCCCCCCCCC)C(=O)O)C(N)=O)C(=O)O [compound 353, cPEG3aCO-Pen(3)-N(N(Me)2)-T-7MeW-K(Ac)-Pen(3)-TMAPF-2Nal-THP-K(PEG2PEG2gEC12)-N-3Pya-NMeK(PEG2PEG2gEC12)-CONH2] ({Me3N+(CH2)2O(CH2)2O(CH2)2CO}-[Pen]D(NMe2)T[Trp(7-Me)]K(Ac)[Pen]Y(X3)[2Nal][Thp]K([AEEA-AEEA-γGlu-Lauroyl])N[3Pal][NMeK]([AEEA-AEEA-γGlu-Lauroyl])-NH2; disulfide 1-6) | 140 nM | –
